Data taken from patent US11389415B2, “Methods of regulating cannabinoid receptor activity-related disorders and diseases” (The United States of America as represented by the …, priority 2012, dated 2022).
Read-outs that look alike come from different tables or passages of the source.

Tests used:
PC3 [1] = test: [3H]-Thymidine incorporation in 96-well plates (Thy), PC3; conditions: Homo sapiens, read-out: IC50 (uM), PC3 (Prostrate Cancer)
U118 = test: tumor cell growth, U118; conditions: read-out: IC50 (uM), U118 (CNS)
MCF7 = test: tumor cell growth, MCF7; conditions: Homo sapiens, MCF7, read-out: IC50 (uM), MCF7 (Breast C)
GL261 = test: tumor cell growth, GL261; conditions: Mus musculus, GL261, read-out: IC50 (uM), GL261 (CNS)
HEP3B [2] = test: tumor cell growth (CTG), HEP3B; conditions: Homo sapiens, Hep3B
U251 = test: tumor cell growth, U251; conditions: Homo sapiens, U-251, read-out: IC50 (uM), U251 (CNS)
HEPG2 = test: tumor cell growth, HEPG2; conditions: Homo sapiens, HepG2, read-out: IC50 (uM), HEPG2 (Liver C)
A172 = test: tumor cell growth, A172; conditions: Homo sapiens, A 172, read-out: IC50 (uM), A172 (CNS)
PC3 [3] = test: tumor cell growth (CTG), PC3; conditions: Homo sapiens
HCT116 [4] = test: tumor cell growth (CTG), HCT116; conditions: Homo sapiens
LN-18 = test: tumor cell growth, LN-18; conditions: Homo sapiens, LN-18, read-out: IC50 (uM), LN-18 (CNS)
HT29 [5] = test: tumor cell growth (CTG), HT29; conditions: Homo sapiens
HT29 [6] = test: Thymidine (Thy) 96 well, HT29; conditions: Homo sapiens, read-out: IC50 (uM), HT29 (Colon Cancer)
HEP3B [7] = test: [3H]-Thymidine incorporation in 96-well plates (Thy), HEP3B; conditions: Homo sapiens, Hep3B, read-out: IC50 (uM), HEP3B (Liver Cancer)
A549 = test: tumor cell growth, A549; conditions: Homo sapiens, A549, read-out: IC50 (uM), A549 (NSCLC)
H460 = test: tumor cell growth (CTG), H460 / NCIH460; conditions: Homo sapiens
LN-229 = test: tumor cell growth (CTG), LN-229 / LN229; conditions: Homo sapiens
PANC-1 = test: tumor cell growth, PANC-1; conditions: Homo sapiens, PANC-1, read-out: IC50 (uM), PANC-1 (Pancreatic C)
LN229 = test: [3H]-Thymidine incorporation in 96-well plates (Thy), LN229; conditions: Homo sapiens, read-out: IC50 (uM), LN229 (CNS Cancer)
Du-145 = test: tumor cell growth, Du-145; conditions: Homo sapiens, DU-145, read-out: IC50 (uM), Du-145 (Prostate C)
NCIH460 = test: Thymidine (Thy) 96 well, NCIH460; conditions: Homo sapiens, read-out: IC50 (uM), NCIH460 (NSCLC)
HCT116 [8] = test: Thymidine (Thy) 96 well, HCT116; conditions: Homo sapiens, read-out: IC50 (uM), HCT116 (Colon Cancer)
MDAMB231 = test: tumor cell growth, MDAMB231; conditions: Homo sapiens, MDA-MB-231, read-out: IC50 (uM), MDAMB231 (Breast C)
U87 = test: tumor cell growth, U87; conditions: Homo sapiens, U-87 MG, read-out: IC50 (uM), U87 (CNS)

SMILES: COc1cccc2c1C(=O)c1c(O)c3c(c(O)c1C2=O)C[C@@](O)(C(=O)CO)C[C@@H]3O[C@H]1C[C@H](N)[C@H](O)[C@H](C)O1 [Doxorubicin, reference compound]
- IC50 (PC3 [1]; PC-3, 24 h): 0.04 µM
- IC50 (PC3 [1]; PC-3, 48 h): 0.28 µM
- IC50 (U118): 0.81 µM
- IC50 (MCF7): 0.3 µM
- IC50 (GL261): 0.17 µM
- IC50 (HEP3B [2]; 48 h, read-out: IC50 (uM), HEP3B (Liver Cancer), 96 well CTG 2 days treatment): 0.52 µM
- IC50 (HEP3B [2]; 72 h, read-out: IC50 (uM), HEP3B (Liver Cancer), 384well CTG 3 days treatment −1): 0.43 µM
- IC50 (HEP3B [2]; 72 h, read-out: IC50 (uM), HEP3B (Liver Cancer), 384well CTG 3 days treatment −2): 0.35 µM
- IC50 (HEP3B [2]; read-out: IC50 (uM), HEP3B (Liver C), Table 6): 0.43 µM
- IC50 (U251): 0.17 µM
- IC50 (HEPG2): 0.28 µM
- IC50 (A172): 0.46 µM
- IC50 (PC3 [3]; PC-3, 24 h, read-out: IC50 (uM), PC3 (Prostrate Cancer)): 3.02 µM
- IC50 (PC3 [3]; PC-3, 48 h, read-out: IC50 (uM), PC3 (Prostrate Cancer)): 0.93 µM
- IC50 (PC3 [3]; PC-3, 72 h, read-out: IC50 (uM), PC3 (Prostrate Cancer)): 0.91 µM
- IC50 (PC3 [3]; PC-3, read-out: IC50 (uM), PC3 (Prostate C)): 0.91 µM
- IC50 (HCT116 [4]; HCT-116, 24 h, read-out: IC50 (uM), HCT116 (Colon Cancer), 96 well CTG 1 day treatment): 0.21 µM
- IC50 (HCT116 [4]; HCT-116, 48 h, read-out: IC50 (uM), HCT116 (Colon Cancer), 96 well CTG 2 days treatment): 0.23 µM
- IC50 (HCT116 [4]; HCT-116, 72 h, read-out: IC50 (uM), HCT116 (Colon Cancer), 384well CTG 3 days treatment −1): 0.06 µM
- IC50 (HCT116 [4]; HCT-116, 72 h, read-out: IC50 (uM), HCT116 (Colon Cancer), 384well CTG 3 days treatment −2): 0.21 µM
- IC50 (HCT116 [4]; HCT-116, read-out: IC50 (uM), HCT116 (Colon C), Table 6): 0.06 µM
- IC50 (LN-18): 0.53 µM
- IC50 (HT29 [5]; HT-29, 48 h, read-out: IC50 (uM), HT29 (Colon Cancer)): 0.52 µM
- IC50 (HT29 [5]; HT-29, 72 h, read-out: IC50 (uM), HT29 (Colon Cancer)): 0.26 µM
- IC50 (HT29 [5]; HT-29, read-out: IC50 (uM), HT29 (Colon C)): 0.26 µM
- IC50 (HT29 [6]; HT-29, 24 h): 0.11 µM
- IC50 (HT29 [6]; HT-29, 48 h): 0.12 µM
- IC50 (HEP3B [7]; 24 h): 0.04 µM
- IC50 (HEP3B [7]; 48 h): 0.02 µM
- IC50 (A549): 0.11 µM
- IC50 (H460; NCI-H460, 24 h, read-out: IC50 (uM), NCIH460 (NSCLC), 96 well CTG 1 day treatment): 0.31 µM
- IC50 (H460; NCI-H460, 48 h, read-out: IC50 (uM), NCIH460 (NSCLC), 96 well CTG 2 days treatment): 0.12 µM
- IC50 (H460; NCI-H460, 72 h, read-out: IC50 (uM), NCIH460 (NSCLC), 384well CTG 3 days treatment −1): 0.02 µM
- IC50 (H460; NCI-H460, 72 h, read-out: IC50 (uM), NCIH460 (NSCLC), 384well CTG 3 days treatment −2): 0.11 µM
- IC50 (H460; NCI-H460, read-out: IC50 (uM), H460 (NSCLC), Table 6): 0.02 µM
- IC50 (LN-229; LN-229, 48 h, read-out: IC50 (uM), LN229 (CNS Cancer)): 1.7 µM
- IC50 (LN-229; LN-229, 72 h, read-out: IC50 (uM), LN229 (CNS Cancer)): 0.61 µM
- IC50 (LN-229; LN-229, read-out: IC50 (uM), LN-229 (CNS)): 0.61 µM
- IC50 (PANC-1): 2.97 µM
- IC50 (LN229; LN-229, 24 h): 0.1 µM
- IC50 (LN229; LN-229, 48 h): 0.07 µM
- IC50 (Du-145): 0.38 µM
- IC50 (NCIH460; NCI-H460, 24 h): 0.09 µM
- IC50 (NCIH460; NCI-H460, 48 h): 0.03 µM
- IC50 (HCT116 [8]; HCT-116, 24 h): 0.12 µM
- IC50 (HCT116 [8]; HCT-116, 48 h): 0.14 µM
- IC50 (MDAMB231): 0.68 µM
- IC50 (U87): 0.21 µM
